For test [1], the target named is isolated recombinant JAK1 kinase domain (Homo sapiens (Human), UniProt P23458). The test is described as follows: JAK1 enzyme assay (Caliper LabChip, Ki). In kind it is biochemical. The note with it: read-out: JAK1 Ki. In a few lines:
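Recombinant human JAK1 kinase domain phosphorylating an N-terminally 5-carboxyfluorescein-labelled JAK3-derived peptide, 30 min at 22 °C, stopped with EDTA (50 mM final). Phosphorylated fraction of total peptide read by Caliper LabChip mobility shift; Ki from Morrison tight-binding fit corrected for ATP competition (Ki=Ki,app/(1+[ATP]/Km,app)).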

Test [2] concerns the target isolated recombinant JAK2 kinase domain (Homo sapiens (Human), UniProt O60674). In words: JAK2 enzyme assay (Caliper LabChip, Ki). In kind it is biochemical. In a few lines:
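Recombinant human JAK1 or JAK2 kinase domain phosphorylating a 5-carboxyfluorescein-labelled JAK3-derived peptide; 30 min at 22 °C, stopped with EDTA (50 mM final). Phosphorylated product measured as a fraction of total peptide by Caliper LabChip mobility shift.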

Test [3] has as its system JAK1-dependent STAT6 phosphorylation downstream of IL-13 stimulation in BEAS-2B human bronchial epithelial cells. The test is described as follows: JAK1 pathway assay in BEAS-2B cells (IL-13-pSTAT6, MSD). The test is classed as cell-based. To be noted: Homo sapiens, BEAS-2B, BEAS-2B cells, IL-13 stimulation; read-out: IL-13 p-STAT6 BEAS-2B IC50.

Molecules are shown by their SMILES.

isolated recombinant JAK2 kinase domain, sequence (O60674 849-1124): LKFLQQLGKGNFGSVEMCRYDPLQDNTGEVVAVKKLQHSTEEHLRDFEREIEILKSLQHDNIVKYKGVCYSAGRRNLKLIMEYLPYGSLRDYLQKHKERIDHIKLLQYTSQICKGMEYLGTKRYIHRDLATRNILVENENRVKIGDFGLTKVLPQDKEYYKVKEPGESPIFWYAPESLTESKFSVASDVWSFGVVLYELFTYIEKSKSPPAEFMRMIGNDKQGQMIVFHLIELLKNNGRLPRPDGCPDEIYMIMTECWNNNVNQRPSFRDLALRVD
isolated recombinant JAK1 kinase domain, sequence (P23458 875-1153): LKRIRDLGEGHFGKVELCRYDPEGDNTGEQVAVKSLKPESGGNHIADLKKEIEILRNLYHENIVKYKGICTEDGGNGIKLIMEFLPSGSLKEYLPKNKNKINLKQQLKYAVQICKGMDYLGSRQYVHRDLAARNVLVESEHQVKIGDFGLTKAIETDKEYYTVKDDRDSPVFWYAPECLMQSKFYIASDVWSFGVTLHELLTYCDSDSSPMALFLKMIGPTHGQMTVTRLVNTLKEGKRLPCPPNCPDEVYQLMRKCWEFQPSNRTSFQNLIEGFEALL

A word on the Ki: it is the equilibrium dissociation constant of an inhibitor or competing ligand from its target. The IC50 is the midpoint of a concentration-inhibition curve. For `N#CCC1(n2cc(C(N)=O)c(NC(=O)C3CC3)n2)CCN(Cc2ccc(-n3nccn3)c(O)c2)CC1` [Example 277, 1-[4-(cyanomethyl)-1-[[3-hydroxy-4-(triazol-2-yl)phenyl]methyl]-4-piperidyl]-3-(cyclopropanecarbonylamino) pyrazole-4-carboxamide], the Ki in test [1] was found to be 0.74 nM; in test [2], 1.9 nM. Also, the IC50 in test [3] stood at 40 nM.

With `COC(=O)Nc1nn(C2(CC#N)CCN(Cc3ccc(-c4ncco4)cc3)CC2F)cc1C(N)=O` (stereo not drawn) [Example 278, methyl N-[4-carbamoyl-1-[4-(cyanomethyl)-3-fluoro-1-[(4-oxazol-2-ylphenyl)methyl]-4-piperidyl]pyrazol-3-yl]carbamate], the figures for the Ki in test [1] and in test [2] were 1.1 nM and 1.3 nM, respectively. Besides, in test [3], the IC50 turned out to be 45 nM.

With `C#Cc1ccc(NC2CCC(CC#N)(n3cc(C(N)=O)c(NC(=O)C4CC4)n3)CC2)cc1` (stereo not drawn) [Example 279, 1-[1-(cyanomethyl)-4-(4-ethynylanilino)cyclohexyl]-3-(cyclopropanecarbonylamino) pyrazole-4-carboxamide], the Ki was found to be 1.2 nM in test [1] and 14 nM in test [2]. Besides, the IC50 in test [3] amounted to 92 nM.

As for `C#Cc1ccc(CN2CCC(CC#N)(n3cc(C(N)=O)c(NC(=O)C4CC4)n3)C(F)C2)c(Cl)c1` (stereo not drawn) [Example 280, 1-[1-[(2-chloro-4-ethynyl-phenyl)methyl]-4-(cyanomethyl)-3-fluoro-4-piperidyl]-3-(cyclopropanecarbonylamino) pyrazole-4-carboxamide], the Ki in test [1] is 0.3 nM; in test [2], 0.4 nM. Further, the IC50 in test [3] turned out to be 16 nM.

With `COC(=O)Nc1nn(C2(CC#N)CCN(Cc3ccc(C4CC4)cc3)CC2F)cc1C(N)=O` (stereo not drawn) [Example 281, methyl N-[4-carbamoyl-1-[4-(cyanomethyl)-1-[(4-cyclopropylphenyl)methyl]-3-fluoro-4-piperidyl]pyrazol-3-yl]carbamate], the Ki is 1.1 nM in test [1] and 2.2 nM in test [2]. Further, the IC50 in test [3] is 36 nM.

For `N#CCC1(n2cc(C(N)=O)c(NC(=O)C3CC3)n2)CCC(Nc2ccccc2)CC1` (stereo not drawn) [Example 282, 1-[4-anilino-1-(cyanomethyl)cyclohexyl]-3-(cyclopropanecarbonylamino) pyrazole-4-carboxamide], the Ki in test [1] worked out at 0.62 nM; in test [2], 9.6 nM. The IC50 in test [3] is 48 nM.

Regarding `COC(=O)Nc1nn(C2(CC#N)CCN(Cc3cc(C(F)F)ccc3F)CC2F)cc1C(N)=O` (stereo not drawn) [Example 283, methyl N-[4-carbamoyl-1-[4-(cyanomethyl)-1-[[5-(difluoromethyl)-2-fluoro-phenyl]methyl]-3-fluoro-4-piperidyl]pyrazol-3-yl]carbamate], the Ki amounted to 1.4 nM in test [1] and 2.9 nM in test [2]. Also, the IC50 in test [3] worked out at 77 nM.

Take `C=Cc1ccc(CN2CCC(CC#N)(n3cc(C(N)=O)c(NC(=O)OC)n3)C(F)C2)cc1O` (stereo not drawn) [Example 284, methyl N-[4-carbamoyl-1-[4-(cyanomethyl)-3-fluoro-1-[(3-hydroxy-4-vinyl-phenyl)methyl]-4-piperidyl]pyrazol-3-yl]carbamate]: the Ki in test [1] was 0.3 nM; in test [2], 0.5 nM. Further, the IC50 in test [3] was determined as 48 nM.

For the molecule `C=Cc1cc(F)c(CN2CCC(CC#N)(n3cc(C(N)=O)c(NC(=O)OC)n3)C(F)C2)cc1O` (stereo not drawn) [Example 285, methyl N-[4-carbamoyl-1-[4-(cyanomethyl)-3-fluoro-1-[(2-fluoro-5-hydroxy-4-vinyl-phenyl)methyl]-4-piperidyl]pyrazol-3-yl]carbamate], the values for the Ki in test [1] and in test [2] were 0.19 nM and 0.23 nM, respectively. Also, the concentration for half-maximal inhibition (IC50) in test [3] is 22 nM.

As for `N#CCC1(n2cc(C(N)=O)c(NC(=O)C3CC3)n2)CCN(Cc2ccc(-n3nccn3)c(O)c2)CC1F` (stereo not drawn) [Example 286, 1-[4-(cyanomethyl)-3-fluoro-1-[[3-hydroxy-4-(triazol-2-yl)phenyl]methyl]-4-piperidyl]-3-(cyclopropanecarbonylamino) pyrazole-4-carboxamide], the Ki in test [1] came to 0.43 nM; in test [2], 0.4 nM. Also, the IC50 in test [3] was 52 nM.

Regarding `COC(=O)Nc1nn(C2(CC#N)CCN(Cc3ccc(-n4nccn4)c(O)c3)CC2F)cc1C(N)=O` (stereo not drawn) [Example 287, methyl N-[4-carbamoyl-1-[4-(cyanomethyl)-3-fluoro-1-[[3-hydroxy-4-(triazol-2-yl)phenyl]methyl]-4-piperidyl]pyrazol-3-yl]carbamate], the Ki in test [1] stood at 0.35 nM; in test [2] it was 0.43 nM. Further, the IC50 in test [3] was found to be 32 nM.

In the case of `N#CCC1(n2cc(C(N)=O)c(NC(=O)C3CC3)n2)CCC(Nc2ccc(-n3nccn3)cc2)CC1` (stereo not drawn) [Example 288, 1-[1-(cyanomethyl)-4-[4-(triazol-2-yl)anilino]cyclohexyl]-3-(cyclopropanecarbonylamino) pyrazole-4-carboxamide], the Ki in test [1] is 0.28 nM; in test [2] it was 4.4 nM. Also, the IC50 in test [3] was 41 nM.

In the case of `C#Cc1ccc(CN2CCC(CC#N)(n3cc(C(N)=O)c(NC(=O)OC)n3)C(F)C2)c(Cl)c1` (stereo not drawn) [Example 289, methyl N-[4-carbamoyl-1-[1-[(2-chloro-4-ethynyl-phenyl)methyl]-4-(cyanomethyl)-3-fluoro-4-piperidyl]pyrazol-3-yl]carbamate], the figures for the Ki in test [1] and in test [2] were 0.26 nM and 0.55 nM, respectively. Also, the IC50 in test [3] came out at 15 nM.

`N#CCC1(n2cc(C(N)=O)c(NC(=O)C3CC3)n2)CCC(Nc2ccccc2Cl)CC1` (stereo not drawn) [Example 290, 1-[4-(2-chloroanilino)-1-(cyanomethyl)cyclohexyl]-3-(cyclopropanecarbonylamino) pyrazole-4-carboxamide]: the Ki turned out to be 1.1 nM in test [1] and 13 nM in test [2]. Also, the IC50 in test [3] stood at 82 nM.

For the molecule `CC1(Oc2ccc(OC(F)F)cc2)CN(C2CCC(CC#N)(n3cc(C(N)=O)c(NC(=O)C4CC4)n3)CC2)C1` (stereo not drawn) [Example 291, 1-[1-(cyanomethyl)-4-[3-[4-(difluoromethoxy)phenoxy]-3-methyl-azetidin-1-yl]cyclohexyl]-3-(cyclopropanecarbonylamino) pyrazole-4-carboxamide], the Ki is 0.86 nM in test [1] and 2.1 nM in test [2]. For the same molecule, the IC50 in test [3] was found to be 54 nM.

With `COC(=O)Nc1nn(C2(CC#N)CCN(Cc3cc(O)c(C)cc3F)CC2F)cc1C(N)=O` (stereo not drawn) [Example 292, methyl N-[4-carbamoyl-1-[4-(cyanomethyl)-3-fluoro-1-[(2-fluoro-5-hydroxy-4-methyl-phenyl)methyl]-4-piperidyl]pyrazol-3-yl]carbamate], the results for the Ki in test [1] and in test [2] were 0.55 nM and 0.7 nM, respectively. Moreover, the IC50 in test [3] amounted to 49 nM.

For `COC(=O)Nc1nn(C2(CC#N)CCN(Cc3cc(O)cc(F)c3)CC2F)cc1C(N)=O` (stereo not drawn) [Example 293, methyl N-[4-carbamoyl-1-[4-(cyanomethyl)-3-fluoro-1-[(3-fluoro-5-hydroxy-phenyl)methyl]-4-piperidyl]pyrazol-3-yl]carbamate], the Ki in test [1] came to 0.3 nM; in test [2] it was 0.34 nM. Further, the concentration for half-maximal inhibition (IC50) in test [3] is 55 nM.

As for `C#Cc1ccc(OC2(C)CN(C3CCC(CC#N)(n4cc(C(N)=O)c(NC(=O)C5CC5)n4)CC3)C2)cc1` (stereo not drawn) [Example 294, 1-(1-(Cyanomethyl)-4-(3-(4-ethynylphenoxy)-3-methylazetidin-1-yl)cyclohexyl)-3-(cyclopropanecarboxamido)-1H-pyrazole-4-carboxamide], the figures for the Ki in test [1] and in test [2] were 0.74 nM and 1.1 nM, respectively. Also, the IC50 in test [3] stood at 47 nM.

For `CC1(Oc2ccc(C(F)(F)F)cc2)CN(C2CCC(CC#N)(n3cc(C(N)=O)c(NC(=O)C4CC4)n3)CC2)C1` (stereo not drawn) [Example 295, 1-[1-(cyanomethyl)-4-[3-methyl-3-[4-(trifluoromethyl)phenoxy]azetidin-1-yl]cyclohexyl]-3-(cyclopropanecarbonylamino) pyrazole-4-carboxamide], the results for the inhibitory constant (Ki) in test [1] and in test [2] were 2 nM and 2.9 nM, respectively. The IC50 in test [3] was found to be 85 nM.

Turning to `COC(=O)Nc1nn(C2(CC#N)CCN(Cc3cc(O)c(Br)cc3Cl)CC2F)cc1C(N)=O` (stereo not drawn) [Example 296, methyl N-[1-[1-[(4-bromo-2-chloro-5-hydroxy-phenyl)methyl]-4-(cyanomethyl)-3-fluoro-4-piperidyl]-4-carbamoyl-pyrazol-3-yl]carbamate], the Ki was 0.56 nM in test [1] and 0.59 nM in test [2]. The IC50 in test [3] is 52 nM.

`C#Cc1ccc(CN2CCC(CC#N)(n3cc(C(N)=O)c(NC(=O)OC)n3)C(F)C2)c(F)c1` (stereo not drawn) [Example 297, methyl N-[4-carbamoyl-1-[4-(cyanomethyl)-1-[(4-ethynyl-2-fluoro-phenyl)methyl]-3-fluoro-4-piperidyl]pyrazol-3-yl]carbamate]: the figures for the Ki in test [1] and in test [2] were 0.53 nM and 0.76 nM, respectively. The IC50 in test [3] worked out at 62 nM.

As for `CC#Cc1ccc(CN2CCC(CC#N)(n3cc(C(N)=O)c(NC(=O)OC)n3)C(F)C2)cc1` (stereo not drawn) [Example 298, Methyl (4-carbamoyl-1-(4-(cyanomethyl)-3-fluoro-1-(4-(prop-1-yn-1-yl)benzyl)piperidin-4-yl)-1H-pyrazol-3-yl)carbamate], the results for the Ki in test [1] and in test [2] were 0.6 nM and 0.58 nM, respectively. Further, in test [3], the IC50 was 29 nM.

`N#CCC1(n2cc(C(N)=O)c(NC(=O)C3CC3)n2)CCN(Cc2ccc(C#CC3CC3)cc2)CC1` [Example 299, 1-(4-(Cyanomethyl)-1-(4-(cyclopropylethynyl)benzyl)piperidin-4-yl)-3-(cyclopropanecarboxamido)-1H-pyrazole-4-carboxamide]: the values for the Ki in test [1] and in test [2] were 1.1 nM and 3 nM, respectively. The IC50 in test [3] came out at 85 nM.

The values are drawn from US11731943B2, “Therapeutic compounds, compositions and methods of use thereof” (priority 2016, dated 2023).
